Counter-ions that a name gives are not always drawn. Like-named read-outs stand apart in the source and are kept apart here.

The target of test [1] is T1, SARS-CoV-2 PLpro (nsp3 1564–1878) (Severe acute respiratory syndrome coronavirus 2, UniProt P0DTD1). Put plainly: biochemical. More on the design: FRET-quenched peptide (Pro3) cleavage by PLpro, 10 min pre-incubation, slope over 20 min, normalised to no-compound control. As to conditions: read-out: % of control remaining.
The target in test [2] is T1, SARS-CoV-2 PLpro (nsp3 1564–1878). The experiment in a line: biochemical. As to conditions: read-out: % of control remaining. More on the design: FRET-quenched peptide (Pro3) cleavage by PLpro, 10 min pre-incubation, slope over 20 min, normalised to no-compound control. This is another data set of the same source.

For the compound `C[C@@]1(F)[C@H](O)[C@@H](CO)O[C@H]1n1ccc(=O)[nH]c1=O` [PSI-6206], in test [1] (Well no.=7710, low concentration screen), the remaining activity at 1.25 µM is 92.6%. Also, the remaining activity at 3.75 µM in test [2] (Well no.=7710, high concentration screen) is 87.5%.

`CC(C)NCC(O)COc1ccc(COCCOC(C)C)cc1` (racemic): in test [1] (Well no.=6415, low concentration screen), the remaining activity at 1.25 µM amounted to 99.2%. For the same compound, in test [2] (Well no.=6415, high concentration screen), the remaining activity at 3.75 µM turned out to be 93.2%.

On to `O=C[C@H](Cl)[C@@H](O)[C@H](O)[C@H](O)CO` [2-Chloro-2-deoxy-D-glucose], for which the remaining activity at 1.25 µM in test [1] (Well no.=441, low concentration screen) amounted to 103%. Also, in test [2] (Well no.=441, high concentration screen), the remaining activity at 3.75 µM turned out to be 104%.

As to `CC(=O)[C@H]1CC[C@H]2[C@@H]3CC[C@H]4CC(=O)CC[C@]4(C)[C@H]3CC[C@]12C` [5a-Pregnane-3,20-dione], in test [1] (Well no.=7357, low concentration screen), the remaining activity at 1.25 µM came to 106%. Also, in test [2] (Well no.=7357, high concentration screen), the remaining activity at 3.75 µM stood at 105%.

In the case of `CC#CCn1c(N2CCC[C@@H](N)C2)nc2c1c(=O)n(Cc1nc(C)c3ccccc3n1)c(=O)n2C` [Linagliptin (BI-1356)], in test [1] (Well no.=4883, low concentration screen), the remaining activity at 1.25 µM was determined as 97%. Also, the remaining activity at 3.75 µM in test [2] (Well no.=4883, high concentration screen) turned out to be 93.9%.

Consider `CN(C(=O)Cc1ccc(Cl)c(Cl)c1)C(CN1CCCC1)c1cccc(OCC(=O)O)c1` (stereo not drawn) [ICI 204,448 hydrochloride], for which, in test [1] (Well no.=1065, low concentration screen), the remaining activity at 1.25 µM was found to be 101%. Besides, in test [2] (Well no.=1065, high concentration screen), the remaining activity at 3.75 µM came to 104%.

`CC(N)=NCCCCC(N)C(=O)O` (stereo in doubt) [L-N6-(1-Iminoethyl)lysine hydrochloride]: the remaining activity at 1.25 µM in test [1] (Well no.=871, low concentration screen) came out at 107%. The remaining activity at 3.75 µM in test [2] (Well no.=871, high concentration screen) was determined as 102%.

As to `CC(C(=O)O)C(=O)O` [Methylmalonate], the remaining activity at 1.25 µM in test [1] was determined as 100%. The remaining activity at 3.75 µM in test [2] amounted to 95.5%.

Turning to `NC(=O)Nc1cc(-c2cccc(F)c2)sc1C(=O)N[C@H]1CCCNC1` [AZD7762], in test [1] (Well no.=2691, low concentration screen), the remaining activity at 1.25 µM was determined as 94.4%. Moreover, the remaining activity at 3.75 µM in test [2] (Well no.=2691, high concentration screen) was determined as 95%.

Consider `Cc1ccc(=O)n(-c2ccccc2)c1` [Pirfenidone], for which the remaining activity at 1.25 µM in test [1] (Well no.=904, low concentration screen) turned out to be 107%. In addition, the remaining activity at 3.75 µM in test [2] (Well no.=904, high concentration screen) came to 109%.

As for `C[C@H](N)C(=O)O` [_-Alanine], the remaining activity at 1.25 µM in test [1] (Well no.=7747, low concentration screen) worked out at 103%. Further, the remaining activity at 3.75 µM in test [2] (Well no.=7747, high concentration screen) was 107%.

Take `O=C1C=C2C(=CCOC2O)O1` (stereo not drawn) [Patulin]: the remaining activity at 1.25 µM in test [1] (Well no.=3543, low concentration screen) came to 105%. For the same compound, the remaining activity at 3.75 µM in test [2] (Well no.=3543, high concentration screen) was found to be 103%.

With `Cc1cc(C(C)(C)C)cc(C)c1CC1=NCCN1` [Xylometazoline hydrochloride], in test [1] (Well no.=1484, low concentration screen), the remaining activity at 1.25 µM amounted to 96.8%. The remaining activity at 3.75 µM in test [2] (Well no.=1484, high concentration screen) is 96.2%.

`C/C=C1/CN2CC[C@]34C(=C(C=O)[C@H]1C[C@H]23)Nc1ccccc14` [Norfluorocurarine]: in test [1] (Well no.=3165, low concentration screen), the remaining activity at 1.25 µM amounted to 95.2%. The remaining activity at 3.75 µM in test [2] (Well no.=3165, high concentration screen) turned out to be 97.4%.

In the case of `Cc1ncc(CO)c(CO)c1O` [Metadoxine], the remaining activity at 1.25 µM in test [1] (Well no.=8662, low concentration screen) was found to be 96.1%. In test [2] (Well no.=8662, high concentration screen), the remaining activity at 3.75 µM was determined as 93.3%.

For `C#Cc1cccc(Nc2ncnc3cc(OCCOC)c(OCCO)cc23)c1` [OSI-420], the remaining activity at 1.25 µM in test [1] (Well no.=4822, low concentration screen) is 99.2%; in test [1] (Well no.=5152, low concentration screen), 102%. Besides, the remaining activity at 3.75 µM in test [2] (Well no.=4822, high concentration screen) was determined as 101%; in test [2] (Well no.=5152, high concentration screen), 97.4%.

Take `C[C@@H]1OC(=O)[C@H]2C[C@H]3CCCC[C@@H]3[C@@H](/C=C/[C@H]3CCC[C@H](C)N3C)[C@@H]12` [Himbacine]: the remaining activity at 1.25 µM in test [1] (Well no.=3329, low concentration screen) is 99%. Moreover, in test [2] (Well no.=3329, high concentration screen), the remaining activity at 3.75 µM came to 98.7%.

In the case of `Cc1cc(C(=O)NOCCO)c(Nc2ccc(I)cc2F)n(C)c1=O` [AZD8330], in test [1] (Well no.=5104, low concentration screen), the remaining activity at 1.25 µM is 107%. Besides, the remaining activity at 3.75 µM in test [2] (Well no.=5104, high concentration screen) stood at 106%.

Turning to `CCc1cc2c(cc1CC)CC(NC[C@H](O)c1ccc(O)c3[nH]c(=O)ccc13)C2` [Indacaterol (maleate)], the remaining activity at 1.25 µM in test [1] (Well no.=8199, low concentration screen) worked out at 105%. The remaining activity at 3.75 µM in test [2] (Well no.=8199, high concentration screen) amounted to 95%.

On to `C=C1C[C@H]2[C@@H]3C=C(C)C4=CC(=O)CC[C@]4(C)[C@H]3CC[C@]2(C)[C@@]1(OC(C)=O)C(C)=O` [Melengestrol Acetate], for which the remaining activity at 1.25 µM in test [1] (Well no.=2238, low concentration screen) worked out at 99.1%. Besides, in test [2] (Well no.=2238, high concentration screen), the remaining activity at 3.75 µM was determined as 99.4%.

Turning to `CCOc1ccc(-c2cn(C)nc2-c2cc(OC)c(OC)c(OC)c2)cc1` [Tubulin inhibitor 1], the remaining activity at 1.25 µM in test [1] (Well no.=7162, low concentration screen) came to 104%. In test [2] (Well no.=7162, high concentration screen), the remaining activity at 3.75 µM is 97.8%.

With `Nc1ncnc2c1ncn2[C@@H]1O[C@H](COP(=O)(O)O)[C@@H](O)[C@H]1O` [Adenosine 5'-monophosphate monohydrate], the remaining activity at 1.25 µM in test [1] (Well no.=7902, low concentration screen) is 96.3%; in test [1] (Well no.=8121, low concentration screen), 106%. The remaining activity at 3.75 µM in test [2] (Well no.=7902, high concentration screen) is 101%.

Consider `O=S(=O)(c1ccc2c(c1)C(=NO)c1cc(S(=O)(=O)N3CCCCC3)ccc1-2)N1CCCCC1` [CIL56], for which the remaining activity at 1.25 µM in test [1] (Well no.=6774, low concentration screen) was 98.2%. For the same compound, the remaining activity at 3.75 µM in test [2] (Well no.=6774, high concentration screen) turned out to be 95.6%.

`CCCCCCCC(=O)c1c(O)cc(O)cc1CC(=O)OCC` [Cytosporone B]: the remaining activity at 1.25 µM in test [1] (Well no.=5993, low concentration screen) came to 98.3%. For the same compound, the remaining activity at 3.75 µM in test [2] (Well no.=5993, high concentration screen) came out at 98.7%.

As to `C=C(C)[C@@H]1CC[C@]2(C(=O)O)CC[C@]3(C)[C@H](CC[C@@H]4[C@@]5(C)CC[C@H](O)C(C)(C)[C@@H]5CC[C@]43C)[C@@H]12` [Betulinic acid], the remaining activity at 1.25 µM in test [1] (Well no.=3089, low concentration screen) turned out to be 102%; in test [1] (Well no.=6646, low concentration screen), 105%. Besides, the remaining activity at 3.75 µM in test [2] (Well no.=3089, high concentration screen) was found to be 101%; in test [2] (Well no.=6646, high concentration screen), 100%.

Regarding `CC1(C)S[C@@H]2[C@H](NC(=O)[C@H](N)c3ccccc3)C(=O)N2[C@H]1C(=O)O` [Ampicillin], in test [1] (Well no.=2123, low concentration screen), the remaining activity at 1.25 µM stood at 97.8%. In addition, the remaining activity at 3.75 µM in test [2] (Well no.=2123, high concentration screen) is 97.3%.

On to `Cc1csc(-c2nnc(Nc3ccc(Oc4ncccc4-c4ccnc(N)n4)cc3)c3ccccc23)c1` [AMG 900], for which the remaining activity at 1.25 µM in test [1] (Well no.=5023, low concentration screen) turned out to be 97.2%. For the same compound, the remaining activity at 3.75 µM in test [2] (Well no.=5023, high concentration screen) was found to be 100%.

`O=C(O)CCc1nc(-c2ccccc2)c(-c2ccccc2)o1` [Oxaprozin]: the remaining activity at 1.25 µM in test [1] (Well no.=1090, low concentration screen) amounted to 102%. For the same compound, the remaining activity at 3.75 µM in test [2] (Well no.=1090, high concentration screen) was found to be 104%.

As to `CC(N)C12CC3CC(CC(C3)C1)C2` (stereo not drawn) [Rimantadine], the remaining activity at 1.25 µM in test [1] (Well no.=2203, low concentration screen) is 99.7%. In test [2] (Well no.=2203, high concentration screen), the remaining activity at 3.75 µM came out at 99.8%.

For the compound `Nc1nc(N)c2nc(-c3cccc(O)c3)c(-c3cccc(O)c3)nc2n1` [TG100-115], the remaining activity at 1.25 µM in test [1] (Well no.=4846, low concentration screen) was 99.1%. Further, the remaining activity at 3.75 µM in test [2] (Well no.=4846, high concentration screen) came out at 99.1%.

For `O=C(O)c1cc(O)cc(O)c1` [3,5-Dihydroxybenzoic acid], in test [1] (Well no.=6829, low concentration screen), the remaining activity at 1.25 µM stood at 101%. In test [2] (Well no.=6829, high concentration screen), the remaining activity at 3.75 µM came out at 117%.

On to `NCC(O)c1cc(O)c(O)cc1F` (stereo not drawn) [6-Fluoronorepinephrine hydrochloride], for which, in test [1] (Well no.=227, low concentration screen), the remaining activity at 1.25 µM stood at 97.7%. Also, in test [2] (Well no.=227, high concentration screen), the remaining activity at 3.75 µM was 97%.
